# Literature values as cited in patent US20150127309A1, “Method To Translate Biodynamic Spectrograms Into High-Content Information” (Purdue Research Foundation, priority 2013, published 2015).
# Tests used:
# [1] = ref [78]
# three Raf isoforms = details: in serum; refs [75-77]
compound,measurement,setting,value
CCCS(=O)(=O)Nc1ccc(F)c(C(=O)c2c[nH]c3ncc(-c4ccc(Cl)cc4)cc23)c1F [PLX4032],toxicity,[1],minimal toxicity
same,tolerated serum levels,[1]; serum,up to 50 μM
same,activity against Raf isoforms,three Raf isoforms,active against three Raf isoforms at nanomolar concentrations
